Structures can show the parent of a compound that is named as a salt.
Test: Permeation through a silicone membrane, pH effect (side-by-side permeation apparatus)
Format: in vitro ADME
Conditions: 32° C.
From the text: A further study investigated the permeation of minocycline from a liquid formulation comprising 0.47% (w/w) minocycline HCl dissolved in water through a silicone membrane as function of the pH. The diffusion of tetracycline from commercially available Topicycline® (0.2% w/w tetracycline HCl) across a silicone membrane was also compared under equivalent conditions. The permeation apparatus used (FIG. 1) was as follows. The apparatus consisted of two water-jacketed compartments 1 and 2, separated by a standard silicone membrane 3 (SMEM001 002, Esco Rubber, Barloworld Scientific Ltd, UK), which were clamped together. Each water-jacketed compartment 1 and 2 had respective water inlets 4 and water outlets 5 on the respective outer compartments 6, said outer compartments containing water. Inner compartment 7 for containing sample and inner compartment 8 for containing dissolution medium are also shown. The liquid formulation (or the Topicycline®) was immediately introduced into the inner compartment 7 via port 10. A pre-heated 0.9% saline solution (32° C.) was introduced via the sampling port 9 in the inner compartment 8.

Amount of Tetracycline or Minocycline (μg) detected after 6 hours (pH 5.0, receiver 0.9% saline): 0.17 µg | Amount of Tetracycline or Minocycline (μg) detected after 6 hours (pH 6.2, receiver 0.9% saline): 0.55 µg | Amount of Tetracycline or Minocycline (μg) detected after 6 hours (pH 7.0, receiver 0.9% saline): 0.31 µg
SMILES: CN(C)c1ccc(O)c2c1C[C@H]1C[C@H]3[C@H](N(C)C)C(O)=C(C(N)=O)C(=O)[C@@]3(O)C(O)=C1C2=O [Minocycline HCl]

— patent publication US20080188445A1, “TETRACYCLINE COMPOSITIONS FOR TOPICAL ADMINISTRATION” (WARNER CHILCOTT COMPANY INC., priority 2007, published 2008)
